In the Kinase Knowledgebase extract (Sharma et al. 2016):
pEC50: −log10 of the molar value.

Target: MAPK14 (human) (UniProt Q16539)
Assay: Assesment of MAPK14 Kinase Activity

MAPK14 (human), sequence (Q16539 whole entry, looked up): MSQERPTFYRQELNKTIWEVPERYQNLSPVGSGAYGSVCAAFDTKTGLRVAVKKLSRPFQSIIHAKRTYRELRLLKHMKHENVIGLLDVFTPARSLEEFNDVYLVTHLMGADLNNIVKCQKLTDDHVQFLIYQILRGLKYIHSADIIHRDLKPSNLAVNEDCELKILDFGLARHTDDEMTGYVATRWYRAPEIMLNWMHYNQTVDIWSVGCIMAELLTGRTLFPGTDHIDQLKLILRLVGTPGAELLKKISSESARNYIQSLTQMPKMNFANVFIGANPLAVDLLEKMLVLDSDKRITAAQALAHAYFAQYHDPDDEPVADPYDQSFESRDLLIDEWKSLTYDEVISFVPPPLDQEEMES

pEC50	Compound
≥ 5.00	CC(C)Cn1ncc2cc(Oc3ccc(F)cc3F)c(C(=O)N[C@H]3CCN(C)C3=O)cc21
≥ 5.00	CC(C)Cn1ncc2cc(Oc3ccc(F)cc3F)c(C(=O)N[C@H]3CCCCNC3=O)cc21
≥ 5.00	CC(C)(O)Cn1ncc2cc(Oc3ccc(F)cc3F)c(C(=O)N[C@H]3CCNC3=O)cc21
≥ 5.00	CC(C)(F)Cn1ncc2cc(Oc3ccc(F)cc3F)c(C(=O)N[C@H]3CCCNC3=O)cc21
≥ 5.00	CC(C)Cn1ncc2cc(Oc3ccc(F)cc3F)c(C(=O)N[C@H]3CCCCN(CCO)C3=O)cc21
≥ 5.00	CC(C)(F)Cn1ncc2cc(Oc3ccc(F)cc3F)c(C(=O)N[C@H]3CCCCNC3=O)cc21
≥ 5.00	CC(C)(F)Cn1ncc2cc(Oc3ccc(F)cc3F)c(C(=O)ON3C(=O)CCC3=O)cc21
≥ 5.00	CC(C)Cn1ncc2cc(Oc3ccc(F)cc3F)c(C(=O)N[C@H]3CCCNC3=O)cc21
≥ 5.00	CC(C)Cn1ncc2cc(Oc3ccc(F)cc3F)c(C(=O)N[C@H]3CCCN(CCO)C3=O)cc21
≥ 5.00	CC(C)Cn1ncc2cc(Oc3ccc(F)cc3F)c(C(=O)N[C@H]3CCN(CCO)C3=O)cc21
≥ 5.00	CC(C)Cn1ncc2cc(Oc3ccc(F)cc3F)c(C(=O)N[C@H]3CCNC3=O)cc21
≥ 5.00	CC(C)Cn1ncc2cc(Oc3ccc(F)cc3F)c(C(=O)N[C@H]3CCCN(C)C3=O)cc21
≥ 5.00	CC(C)(F)Cn1ncc2cc(Oc3ccc(F)cc3F)c(C(=O)N[C@H]3CCNC3=O)cc21
≥ 5.00	CC(C)Cn1ncc2cc(Oc3ccc(F)cc3F)c(C(=O)Nc3ccc[nH]c3=O)cc21
≥ 5.00	CC(C)Cn1ncc2cc(Oc3ccc(F)cc3F)c(C(=O)N[C@H]3CCCCN(C)C3=O)cc21
